Reference: patent US20110079773A1, “Selectively Functionalized Rylene Imides and Diimides” (priority 2009, published 2011)
≈ marks a conversion by molar mass, not a printed value. Where “and” joins values, the source holds several entries; their conditions need not be identical. Equal entries are not always repeated. Where two headings read alike, the source gives them in different places. Marks after values point to notes of the source that are not given here.

Tests used:
[1] = Solubility in toluene; type: physicochemical; conditions: for solubility: organic solvent or mixture
Protocol: As used herein, a compound can be considered soluble in a solvent when at least 0.1 mg of the compound can be dissolved in 1 mL of the solvent. Examples of common organic solvents include petroleum ethers; acetonitrile; aromatic hydrocarbons such as benzene, toluene, xylene, and mesitylene; ketones such as acetone, and methyl ethyl ketone; ethers such as tetrahydrofuran, dioxane, bis(2-methoxyethyl)ether, diethyl ether, di-isopropyl ether, and t-butyl methyl ether; alcohols such as methanol, ethanol, butanol, and isopropyl alcohol; aliphatic hydrocarbons such as hexanes; esters such as methyl acetate, ethyl acetate, methyl formate, ethyl formate, isopropyl acetate, and butyl acetate; amides such as dimethylformamide and dimethylacetamide; sulfoxides such as dimethylsulfoxide; halogenated aliphatic and aromatic hydrocarbons such as dichloromethane, chloroform, ethylene chloride, chlorobenzene, dichlorobenzene, and trichlorobenzene; and cyclic solvents such as cyclopentanone, cyclohexanone, and 2-methypyrrolidone. In various embodiments, the present compounds can have good solubility in solvents that are aromatic hydrocarbons such as benzene, toluene, xylene, and mesitylene.
Table 2 below compares the solubilities of several compounds according to the present teachings with their unsubstituted counterparts in toluene.

[2] = Electrochemistry (redox potentials); type: physicochemical; conditions: for E^+1/2: oxidation potential; for E^−1/2: first reduction potential; for E^2−1/2: second reduction potential; for Reduction potential more negative than that of parent compound: shift versus unsubstituted parent
Protocol: Electrochemical measurements were performed using a CH Instruments Model 622 electrochemical workstation. Measurements for compounds 4, 6, 8, and 10 were performed in dichloromethane containing 0.1 M tetrabutylammonium hexafluorophosphate (TBAPF6) electrolyte. Measurements for 2 were performed in benzonitrile with the same electrolyte. A 1.0 mm diameter platinum disk electrode, platinum wire electrode, and […] reference electrode were employed. The ferrocene/ferrocenium redox couple (Fc/Fc^+, 0.46 V vs. SCE) (see Connelly et al., Chem. Rev., 96: 877-910 (1996)) was used as an internal standard. TBAPF6 was recrystallized twice from ethyl acetate prior to use.
Alkylation (e.g., substitution of the phenethyl groups) ortho to the imide nitrogen atoms appears to render the present compounds somewhat more difficult to reduce, but easier to oxidize (Table 3). The reduction potentials of the disubstituted compounds (2, 4, and 6) are approximately 130 mV more negative than those of their parent compounds. Correspondingly, the oxidation potential of the disubstituted 6 is 40 mV less positive than that of […]. Tetrasubstituted 8 and 10 have reduction potentials that are more negative by ˜200 mV than their unsubstituted analogs. These shifts in redox potentials reasonably arise from the electron-donating nature of the alkylating (e.g., phenethyl) groups. The oxidation and reduction potentials of all alkylated molecules shift in the same direction by nearly the same amount, such that the corresponding HOMO-LUMO energy gap remains the same, as is reflected in their electronic absorption and emission spectra described below.

[3] = Steady-state electronic absorption and fluorescence spectroscopy; type: physicochemical; conditions: for E(S1): determined from the average energy of the absorption and emission maxima; for λmax: UV-vis absorption in toluene; for ε: extinction coefficient at λmax; for ε / λem: toluene; for λem: fluorescence emission maximum; for φF: fluorescence quantum yield
Protocol: Steady-state electronic absorption spectra were recorded on a Shimadzu 1601 UV/Vis spectrometer with a 2 mm quartz cuvette. Fluorescence measurements were performed using a PTI Quanta-Master 1 single photon counting spectrofluorimeter in a right angle configuration with a 1 cm quartz cuvette.
The intensity of the S0→>S1 transition increases with the size of the aromatic core, while the energy decreases. The fluorescence spectrum of each chromophore is shown in FIG. 4b and summarized in Table 4 along with that of compounds 1, 3, 5, 7, and 9. A similar trend with the emission maxima moving to longer wavelengths as the size of the aromatic core increases was observed. The electronic absorption and fluorescence properties of all the alkylated chromophores are very similar to those of the parent compounds. No observable trend is apparent for the slight shifts in λmax; however, with the exception of 2, all alkylated compounds have slightly lower extinction coefficients than their parent compounds. The fluorescence emission maxima of the alkylated compounds (Table 4) are similar to those of the parent compounds as reported in the literature. See Hydlovic et al., Phtochem. Photobiol. A., 112: 197-203 (1998); Licchelli et al., Chem. Eur. J., 8: 5161-5169 (2002); Weil et al., Chem. Eur. J., 8: 4742-4750 (2002); and Sadrai et al., J. Phys. Chem., 96: 7988-7996 (1992).

[4] = literature values (footnotes a Gosztola et al., c Lee et al.), cited from earlier work; for E^−1/2: first reduction potential; for E^2−1/2: second reduction potential
[5] = cited from earlier work; for ε: extinction coefficient at λmax; for ε / λem: literature values (footnotes a, b); for λem: fluorescence emission maximum; for φF: fluorescence quantum yield, literature values (footnotes d-h); for λmax: literature values (footnotes a Gosztola et al., b Holtrup et al.)
[6] = Femtosecond transient absorption (excited-state decay); type: physicochemical; conditions: transient absorption decay time constant, dry toluene
From the text: Femtosecond transient absorption measurements were made using a Ti:sapphire laser system as detailed in previously reported work. See Kelley et al., J. Am. Chem. Soc., 129: 3173-3181 (2007). The wavelengths used to excite the samples were 390 nm (1-4), 416 nm (5-8), and 650 nm (9 and 10). The instrument response function for the pump-probe experiments is 160 fs. The transient spectra were obtained using 10 s of averaging at a given delay time. Glass cuvettes with a 2 mm pathlength were used and the samples were dissolved in dry toluene and irradiated with 1.0 μJ pulses at the excitation wavelength. Analysis of the kinetic data was performed at multiple wavelengths using a Levenberg-Marquardt nonlinear least-squares fit to a general sum-of-exponentials function with an added Gaussian to account for the finite instrument response.
The transient absorption spectra of naphthalene monoimide 2, specifically, the S1→>Sn absorption is characterized by a single broad band at 525 nm, which decays monoexponentially with a time constant τD=34 ps. This is similar to the time constant of other NMI compounds and is attributed to rapid intersystem crossing leading to the triplet state of 2. […] The residual 530 nm absorption band decays further with a 175 ps time constant. […]

[7] = literature values (footnote a Hayes et al.); cited from earlier work
[8] = dichloromethane, 0.1 M TBAPF6, Fc/Fc+ (0.46 V vs. SCE) internal standard

Row | Molecule | E(S1) [3] | E^+1/2 [2, 8] | E^−1/2 [4] | E^2−1/2 [4] | ε [5] | λem [5] | φF [5] | λmax [5] | solubility [1] | E^−1/2 [2, 8] | Reduction potential more negative than that of parent compound [2] | λmax [3] | ε [3] | λem [3] | φF [3] | τD [7] | further results
1 | N,N′-bis(n-octyl)-perylene-3, 4:9,10-bis(dicarboximide) [Compound 7] | 2.34 eV | 1.67 V | −0.50^c | −0.73^c | 80000 M⁻¹ cm⁻¹ | 535^a nm | 0.99^g | 526 nm |  |  |  |  |  |  |  |  | Solubility in toluene ([1]; toluene): <1000 µg/mL
2 | CCCCCCCCN1C(=O)c2c(CCc3ccccc3)cc3c4cc(CCc5ccccc5)c5c6c(c(CCc7ccccc7)cc(c7cc(CCc8ccccc8)c(c2c37)C1=O)c64)C(=O)N(CCCCCCCC)C5=O [Compound 8, N,N′-bis(n-octyl)-2,5,8,11-tetrakis(phenethyl)perylene-3, 4:9,10-bis(dicarboximide)] | 2.35 eV | 1.63 V |  |  |  |  |  |  | 2000 µg/mL (≈ 1940 µM) | −0.75^ | ~200 mV | 525 nm | 58000 M⁻¹ cm⁻¹ | 533^ nm | 0.99 |  | E^2−1/2 ([2]; dichloromethane, 0.1 M TBAPF6): −0.93^
3 | CCCCC(CC)CN1C(=O)c2ccc3c4cccc5cccc(c6ccc(c2c36)C1=O)c54 (centres unmarked) [Compound 5, N-(2′-ethylhexyl)-perylene-3,4-dicarboximide] | 2.38 eV | 1.41 V | −1.00^c | −1.49^c | 29970 M⁻¹ cm⁻¹ | 539^a nm | 0.98^f | 505 nm | 2000 µg/mL (≈ 4610 µM) |  |  |  |  |  |  | 3500 ± 100^a ps | 
4 | CCCCC(CC)CN1C(=O)c2c(CCc3ccccc3)cc3c4ccc5c6cc(CCc7ccccc7)c7c8c(c(CCc9ccccc9)cc(c9ccc(c%10cc(CCc%11ccccc%11)c(c2c3%10)C1=O)c4c59)c86)C(=O)N(CC(CC)CCCC)C7=O (centres unmarked) [Compound 10, N,N′-bis(2-ethylhexyl)-2,5,10,13-tetrakis(phenethyl)terrylene-3, 4:11,12-bis(dicarboximide)] | 1.90 eV | 1.1 V |  |  |  |  |  |  | 3000 µg/mL (≈ 2600 µM) | −0.83^ | ~200 mV | 649 nm | 80000 M⁻¹ cm⁻¹ | 661^ nm | 0.95 |  | 

More lines, main results first:

Row | E(S1) [3] | Molecule | E^+1/2 [2, 8] | E^−1/2 [4] | E^2−1/2 [4] | ε [5] | λem [5] | φF [5] | λmax [5] | solubility [1] | E^−1/2 [2, 8] | Reduction potential more negative than that of parent compound [2] | λmax [3] | ε [3] | λem [3] | φF [3] | τD [7] | further results
5 | 1.88 eV | N,N′-bis(2-ethylhexyl)-terrylene-3,4:11,12-bis(dicarboximide) [Compound 9] | 1.12 V | −0.63^c |  | 93000 M⁻¹ cm⁻¹ | 673^b nm | 0.95^h | 650 nm |  |  |  |  |  |  |  |  | Solubility in toluene [1]: <1000 µg/mL
6 | 3.34 eV | CCCCCCCCN1C(=O)c2c(CCc3ccccc3)ccc3ccc(CCc4ccccc4)c(c23)C1=O [Compound 2, N-(n-octyl)-2,7-bis(phenylethyl)naphthalene-1,8-dicarboximide] |  |  |  |  |  |  |  |  |  | approximately 130 mV | 353 nm | 15000 M⁻¹ cm⁻¹ | 394^ nm | 0.08 |  | E^−1/2 ([2]; obtained in benzonitrile with 0.1 M TBAPF6): −1.53^b; τD [6]: 34 ps and 34 ± 1 ps
7 | 3.15 eV | CCCCCCCCN1C(=O)c2ccc3c4c(ccc(c24)C1=O)C(=O)N(CCCCCCCC)C3=O [Compound 3, N,N′-bis(n-octyl)-naphthalene-1,8:4,5-bis(dicarboximide)] |  | −0.48^a | −0.99^a | 14500 M⁻¹ cm⁻¹ | 407^a nm | 0.0018^e | 382 nm |  |  |  |  |  |  |  | <20^a ps | 
8 | 3.09 eV | CCCCCCCCN1C(=O)c2cc(CCc3ccccc3)c3c4c(c(CCc5ccccc5)cc(c24)C1=O)C(=O)N(CCCCCCCC)C3=O [Compound 4, N,N′-bis(n-octyl)-2,7-bis(phenethyl)naphthalene-1,8:4,5-bis(dicarboximide)] |  |  |  |  |  |  |  |  | −0.61^ | approximately 130 mV | 390 nm | 14000 M⁻¹ cm⁻¹ | 415^ nm | 0.0005 |  | E^2−1/2 ([2]; dichloromethane, 0.1 M TBAPF6): −1.15^
9 | 3.38 eV | CCCCCCCCN1C(=O)c2cccc3cccc(c23)C1=O [Compound 1, N-(n-octyl)-naphthalene-1,8-dicarboximide] |  | −1.40^a |  | 10647 M⁻¹ cm⁻¹ | 386^a nm | 0.25^d | 350 nm |  |  |  |  |  |  |  | <50^a ps | 
